Key:
Assay in all cases: Test F preemergence test
Conditions in all cases: scale 0 to 100
bermudagrass = type: in vivo, Cynodon dactylon
In short: (§1)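 Preemergence application to planted seeds, or postemergence to sugarcane plants; compound in non-phytotoxic solvent mix plus surfactant. Greenhouse, 14-21 days. Visual rating vs. controls.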

Surinam grass = type: in vivo, Brachiaria decumbens
In short: as §1

large crabgrass = type: in vivo, Digitaria sanguinalis
In short: as §1

goosegrass = type: in vivo, Eleusine indica
In short: as §1

johnsongrass = type: in vivo, Sorghum halepense
In short: as §1

kochia = type: in vivo, Kochia scoparia
In short: as §1

pitted morningglory = type: in vivo, Ipomoea lacunosa
In short: as §1

common ragweed = type: in vivo, Ambrosia elation
In short: as §1

mustard = type: in vivo, Brassica nigra
In short: as §1

guineagrass = type: in vivo, Panicum maximum
In short: as §1

dallisgrass = type: in vivo, Paspalum dilatatum
In short: as §1

barnyardgrass = type: in vivo, Echinochloa crus-galli
In short: as §1

prickly sida = type: in vivo, Sida spinosa
In short: as §1

Italian ryegrass = type: in vivo, Lolium multiflorum
In short: as §1

common purslane = type: in vivo, Portulaca oleracea
In short: as §1

broadleaf signalgrass = type: in vivo, Brachiaria platyphylla
In short: as §1

common groundsel = type: in vivo, Senecio vulgaris
In short: as §1

Virginia dayflower = type: in vivo, Commelina virginica
In short: as §1

naked crabgrass = type: in vivo, Digitaria nuda
In short: as §1

itchgrass = type: in vivo, Rottboellia cochinchinensis
In short: as §1

quackgrass = type: in vivo, Elytrigia repens
In short: as §1

Cn1nc(C(F)(F)F)c(C[S+]([O-])c2cccc[n+]2[O-])c1OCC(F)(F)F (racemic) [Compound 28]
Bermudagrass plant response rating (bermudagrass; 62 g ai/ha, Preemergence): 80
Bermudagrass plant response rating (bermudagrass; 125 g ai/ha, preemergence): 100
Plant response rating, Bermudagrass (bermudagrass; Preemergence, 16 g ai/ha): 0
Plant response rating, Bermudagrass (bermudagrass; Preemergence, 31 g ai/ha): 30
Surinam Grass plant response rating (Surinam grass; 62 g ai/ha, Preemergence): 100
Surinam Grass plant response rating (Surinam grass; 125 g ai/ha, preemergence): 100
Plant response rating, Surinam Grass (Surinam grass; Preemergence, 31 g ai/ha): 90
Crabgrass, Large plant response rating (large crabgrass; 62 g ai/ha, Preemergence): 100
Crabgrass, Large plant response rating (large crabgrass; 125 g ai/ha, preemergence): 100
Plant response rating, Crabgrass, Large (large crabgrass; Preemergence, 16 g ai/ha): 30
Plant response rating, Crabgrass, Large (large crabgrass; Preemergence, 31 g ai/ha): 80
Goosegrass plant response rating (goosegrass; 62 g ai/ha, Preemergence): 100
Goosegrass plant response rating (goosegrass; 125 g ai/ha, preemergence): 100
Plant response rating, Goosegrass (goosegrass; Preemergence, 16 g ai/ha): 65
Plant response rating, Goosegrass (goosegrass; Preemergence, 31 g ai/ha): 98
Johnsongrass plant response rating (johnsongrass; 62 g ai/ha, Preemergence): 100
Johnsongrass plant response rating (johnsongrass; 125 g ai/ha, preemergence): 100
Plant response rating, Johnsongrass (johnsongrass; Preemergence, 16 g ai/ha): 40
Plant response rating, Johnsongrass (johnsongrass; Preemergence, 31 g ai/ha): 75
Kochia plant response rating (kochia; 62 g ai/ha, Preemergence): 100
Kochia plant response rating (kochia; 125 g ai/ha, preemergence): 100
Plant response rating, Kochia (kochia; Preemergence, 16 g ai/ha): 0
Plant response rating, Kochia (kochia; Preemergence, 31 g ai/ha): 50
Morningglory plant response rating (pitted morningglory; 62 g ai/ha, Preemergence): 100
Morningglory plant response rating (pitted morningglory; 125 g ai/ha, preemergence): 100
Plant response rating, Morningglory (pitted morningglory; Preemergence, 16 g ai/ha): 30
Plant response rating, Morningglory (pitted morningglory; Preemergence, 31 g ai/ha): 80
Ragweed plant response rating (common ragweed; 62 g ai/ha, Preemergence): 80
Ragweed plant response rating (common ragweed; 125 g ai/ha, preemergence): 90
Plant response rating, Ragweed (common ragweed; Preemergence, 16 g ai/ha): 20
Plant response rating, Ragweed (common ragweed; Preemergence, 31 g ai/ha): 70
Black Mustard plant response rating (mustard; 62 g ai/ha, Preemergence): 100
Black Mustard plant response rating (mustard; 125 g ai/ha, preemergence): 100
Plant response rating, Black Mustard (mustard; Preemergence, 16 g ai/ha): 80
Plant response rating, Black Mustard (mustard; Preemergence, 31 g ai/ha): 100
Guineagrass plant response rating (guineagrass; 62 g ai/ha, Preemergence): 100
Guineagrass plant response rating (guineagrass; 125 g ai/ha, preemergence): 100
Plant response rating, Guineagrass (guineagrass; Preemergence, 16 g ai/ha): 75
Plant response rating, Guineagrass (guineagrass; Preemergence, 31 g ai/ha): 100
Dallisgrass plant response rating (dallisgrass; 62 g ai/ha, Preemergence): 100
Dallisgrass plant response rating (dallisgrass; 125 g ai/ha, preemergence): 100
Plant response rating, Dallisgrass (dallisgrass; Preemergence, 16 g ai/ha): 0
Plant response rating, Dallisgrass (dallisgrass; Preemergence, 31 g ai/ha): 40
Barnyardgrass plant response rating (barnyardgrass; 62 g ai/ha, Preemergence): 100
Barnyardgrass plant response rating (barnyardgrass; 125 g ai/ha, preemergence): 100
Plant response rating, Barnyardgrass (barnyardgrass; Preemergence, 16 g ai/ha): 75
Plant response rating, Barnyardgrass (barnyardgrass; Preemergence, 31 g ai/ha): 100
Prickly Sida plant response rating (prickly sida; 62 g ai/ha, Preemergence): 100
Prickly Sida plant response rating (prickly sida; 125 g ai/ha, preemergence): 100
Plant response rating, Prickly Sida (prickly sida; Preemergence, 16 g ai/ha): 15
Plant response rating, Prickly Sida (prickly sida; Preemergence, 31 g ai/ha): 90
Ryegrass, Italian plant response rating (Italian ryegrass; 62 g ai/ha, Preemergence): 100
Ryegrass, Italian plant response rating (Italian ryegrass; 125 g ai/ha, preemergence): 100
Plant response rating, Ryegrass, Italian (Italian ryegrass; Preemergence, 16 g ai/ha): 65
Plant response rating, Ryegrass, Italian (Italian ryegrass; Preemergence, 31 g ai/ha): 98
Purslane plant response rating (common purslane; 62 g ai/ha, Preemergence): 100
Purslane plant response rating (common purslane; 125 g ai/ha, preemergence): 100
Plant response rating, Purslane (common purslane; Preemergence, 16 g ai/ha): 0
Plant response rating, Purslane (common purslane; Preemergence, 31 g ai/ha): 60
Signalgrass plant response rating (broadleaf signalgrass; 62 g ai/ha, Preemergence): 90
Signalgrass plant response rating (broadleaf signalgrass; 125 g ai/ha, preemergence): 100
Plant response rating, Signalgrass (broadleaf signalgrass; Preemergence, 31 g ai/ha): 75
Groundsel plant response rating (common groundsel; 62 g ai/ha, Preemergence): 100
Groundsel plant response rating (common groundsel; 125 g ai/ha, preemergence): 100
Plant response rating, Groundsel (common groundsel; Preemergence, 16 g ai/ha): 90
Plant response rating, Groundsel (common groundsel; Preemergence, 31 g ai/ha): 100
Dayflower plant response rating (Virginia dayflower; 62 g ai/ha, Preemergence): 100
Dayflower plant response rating (Virginia dayflower; 125 g ai/ha, preemergence): 100
Plant response rating, Dayflower (Virginia dayflower; Preemergence, 16 g ai/ha): 20
Plant response rating, Dayflower (Virginia dayflower; Preemergence, 31 g ai/ha): 100
Crabgrass, Naked plant response rating (naked crabgrass; 62 g ai/ha, Preemergence): 90
Crabgrass, Naked plant response rating (naked crabgrass; 125 g ai/ha, preemergence): 100
Plant response rating, Crabgrass, Naked (naked crabgrass; Preemergence, 16 g ai/ha): 65
Plant response rating, Crabgrass, Naked (naked crabgrass; Preemergence, 31 g ai/ha): 90
Itchgrass plant response rating (itchgrass; 62 g ai/ha, Preemergence): 95
Itchgrass plant response rating (itchgrass; 125 g ai/ha, preemergence): 100
Plant response rating, Itchgrass (itchgrass; Preemergence, 16 g ai/ha): 20
Plant response rating, Itchgrass (itchgrass; Preemergence, 31 g ai/ha): 35
Quackgrass plant response rating (quackgrass; 62 g ai/ha, Preemergence): 90
Quackgrass plant response rating (quackgrass; 125 g ai/ha, preemergence): 95
Plant response rating, Quackgrass (quackgrass; Preemergence, 16 g ai/ha): 0
Plant response rating, Quackgrass (quackgrass; Preemergence, 31 g ai/ha): 50
